# Assay results as given in the supplement of paper PMC10307832.
# Tests used:
# Assay in all cases: relative viability (nuclei count vs DMSO), 5 days (fraction); higher = more cells survive
# A-427 = test system: A-427
# In short: (§1)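 Five library-drug doses in √10 steps were combined with a fixed anchor-drug dose, or a single drug was given alone, by pin tool to lung cancer cell lines in 1536-well plates the day after seeding. Nuclei were stained and counted after 5 days. Relative viability is the nuclei count in treated wells over that in vehicle wells, taken as the median of duplicate plates.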
# COR-L 105 = test system: COR-L 105
# In short: as §1
# H3255 = test system: H3255
# In short: as §1
# HCC-44 = test system: HCC-44
# In short: as §1
# HCC-827 = test system: HCC-827
# In short: as §1
# LCLC-103H = test system: LCLC-103H
# In short: as §1
# LOU-NH91 = test system: LOU-NH91
# In short: as §1
# LXF-289 = test system: LXF-289
# In short: as §1
# NCI-H1792 = test system: NCI-H1792
# In short: as §1
# NCI-H1915 = test system: NCI-H1915
# In short: as §1
# NCI-H1975 = test system: NCI-H1975
# In short: as §1
# NCI-H1993 = test system: NCI-H1993
# In short: as §1
# NCI-H2023 = test system: NCI-H2023
# In short: as §1
# NCI-H2087 = test system: NCI-H2087
# In short: as §1
# NCI-H520 = test system: NCI-H520
# In short: as §1
# SW 1573 = test system: SW 1573
# In short: as §1
smiles,measurement,setting,value
Cc1csc(=NC2CCCCC2)n1/N=C/c1ccc(O)c(O)c1O [MIM1] + CC(C)C[C@H](NC(=O)[C@H](Cc1ccccc1)NC(=O)c1cnccn1)B(O)O [Bortezomib] (partner 0.002 µM),relative viability,A-427; first compound 0.2 µM,0.975
same,relative viability,A-427; first compound 0.6325 µM,0.865
same,relative viability,A-427; first compound 2 µM,0.972
same,relative viability,A-427; first compound 6.325 µM,0.847
same,relative viability,A-427; first compound 20 µM,0.234
same,relative viability,COR-L 105; first compound 0.2 µM,0.789
same,relative viability,COR-L 105; first compound 0.6325 µM,0.82
same,relative viability,COR-L 105; first compound 2 µM,0.719
same,relative viability,COR-L 105; first compound 6.325 µM,0.54
same,relative viability,COR-L 105; first compound 20 µM,0.278
same,relative viability,H3255; first compound 0.2 µM,0.861
same,relative viability,H3255; first compound 0.6325 µM,0.634
same,relative viability,H3255; first compound 2 µM,0.666
same,relative viability,H3255; first compound 6.325 µM,0.538
same,relative viability,H3255; first compound 20 µM,0.24
same,relative viability,HCC-44; first compound 0.2 µM,0.879
same,relative viability,HCC-44; first compound 0.6325 µM,0.816
same,relative viability,HCC-44; first compound 2 µM,0.84
same,relative viability,HCC-44; first compound 6.325 µM,0.446
same,relative viability,HCC-44; first compound 20 µM,0.141
same,relative viability,HCC-827; first compound 0.2 µM,1.09
same,relative viability,HCC-827; first compound 0.6325 µM,0.9
same,relative viability,HCC-827; first compound 2 µM,1.07
same,relative viability,HCC-827; first compound 6.325 µM,0.402
same,relative viability,HCC-827; first compound 20 µM,0.465
same,relative viability,LCLC-103H; first compound 0.2 µM,0.974
same,relative viability,LCLC-103H; first compound 0.6325 µM,0.959
same,relative viability,LCLC-103H; first compound 2 µM,1.05
same,relative viability,LCLC-103H; first compound 6.325 µM,0.955
same,relative viability,LCLC-103H; first compound 20 µM,0.938
same,relative viability,LOU-NH91; first compound 0.2 µM,0.462
same,relative viability,LOU-NH91; first compound 0.6325 µM,0.53
same,relative viability,LOU-NH91; first compound 2 µM,0.447
same,relative viability,LOU-NH91; first compound 6.325 µM,0.35
same,relative viability,LOU-NH91; first compound 20 µM,0.267
same,relative viability,LXF-289; first compound 0.2 µM,0.986
same,relative viability,LXF-289; first compound 0.6325 µM,0.791
same,relative viability,LXF-289; first compound 2 µM,1.03
same,relative viability,LXF-289; first compound 6.325 µM,0.826
same,relative viability,LXF-289; first compound 20 µM,0.634
same,relative viability,NCI-H1792; first compound 0.2 µM,0.852
same,relative viability,NCI-H1792; first compound 0.6325 µM,0.921
same,relative viability,NCI-H1792; first compound 2 µM,0.922
same,relative viability,NCI-H1792; first compound 6.325 µM,0.452
same,relative viability,NCI-H1792; first compound 20 µM,0.851
same,relative viability,NCI-H1915; first compound 0.2 µM,0.989
same,relative viability,NCI-H1915; first compound 0.6325 µM,0.857
same,relative viability,NCI-H1915; first compound 2 µM,0.898
same,relative viability,NCI-H1915; first compound 6.325 µM,0.461
same,relative viability,NCI-H1915; first compound 20 µM,0.725
same,relative viability,NCI-H1975; first compound 0.2 µM,0.428
same,relative viability,NCI-H1975; first compound 0.6325 µM,0.381
same,relative viability,NCI-H1975; first compound 2 µM,0.377
same,relative viability,NCI-H1975; first compound 6.325 µM,0.231
same,relative viability,NCI-H1975; first compound 20 µM,0.221
same,relative viability,NCI-H1993; first compound 0.2 µM,1.18
same,relative viability,NCI-H1993; first compound 0.6325 µM,1.03
same,relative viability,NCI-H1993; first compound 2 µM,1.11
same,relative viability,NCI-H1993; first compound 6.325 µM,0.774
same,relative viability,NCI-H1993; first compound 20 µM,0.473
same,relative viability,NCI-H2023; first compound 0.2 µM,1.11
same,relative viability,NCI-H2023; first compound 0.6325 µM,0.916
same,relative viability,NCI-H2023; first compound 2 µM,0.765
same,relative viability,NCI-H2023; first compound 6.325 µM,0.35
same,relative viability,NCI-H2023; first compound 20 µM,0.0682
same,relative viability,NCI-H2087; first compound 0.2 µM,0.753
same,relative viability,NCI-H2087; first compound 0.6325 µM,0.743
same,relative viability,NCI-H2087; first compound 2 µM,0.666
same,relative viability,NCI-H2087; first compound 6.325 µM,0.586
same,relative viability,NCI-H2087; first compound 20 µM,0.498
same,relative viability,NCI-H520; first compound 0.2 µM,0.721
same,relative viability,NCI-H520; first compound 0.6325 µM,0.353
same,relative viability,NCI-H520; first compound 2 µM,0.684
same,relative viability,NCI-H520; first compound 6.325 µM,0.401
same,relative viability,NCI-H520; first compound 20 µM,0.184
same,relative viability,SW 1573; first compound 0.2 µM,0.937
same,relative viability,SW 1573; first compound 0.6325 µM,1.05
same,relative viability,SW 1573; first compound 2 µM,0.978
same,relative viability,SW 1573; first compound 6.325 µM,0.811
same,relative viability,SW 1573; first compound 20 µM,0.592
Nc1cccc2c1CN(C1CCC(=O)NC1=O)C2=O (stereo not drawn) [Lenalidomide] + CC(C)C[C@H](NC(=O)[C@H](Cc1ccccc1)NC(=O)c1cnccn1)B(O)O [Bortezomib] (partner 0.002 µM),relative viability,A-427; first compound 0.253 µM,1.08
same,relative viability,A-427; first compound 2.53 µM,0.951
same,relative viability,A-427; first compound 8 µM,0.908
same,relative viability,COR-L 105; first compound 0.253 µM,0.792
same,relative viability,COR-L 105; first compound 0.8 µM,0.824
same,relative viability,COR-L 105; first compound 2.53 µM,0.863
same,relative viability,COR-L 105; first compound 8 µM,0.797
same,relative viability,H3255; first compound 0.253 µM,0.886
same,relative viability,H3255; first compound 0.8 µM,0.612
same,relative viability,H3255; first compound 2.53 µM,0.874
same,relative viability,H3255; first compound 8 µM,0.828
same,relative viability,HCC-44; first compound 0.253 µM,0.904
same,relative viability,HCC-44; first compound 0.8 µM,0.701
same,relative viability,HCC-44; first compound 2.53 µM,0.912
same,relative viability,HCC-44; first compound 8 µM,0.832
same,relative viability,HCC-827; first compound 0.253 µM,1.09
same,relative viability,HCC-827; first compound 0.8 µM,0.798
same,relative viability,HCC-827; first compound 2.53 µM,1.09
same,relative viability,HCC-827; first compound 8 µM,1.04
same,relative viability,LCLC-103H; first compound 0.253 µM,1.01
same,relative viability,LCLC-103H; first compound 0.8 µM,0.966
same,relative viability,LCLC-103H; first compound 2.53 µM,1.01
same,relative viability,LCLC-103H; first compound 8 µM,0.869
same,relative viability,LOU-NH91; first compound 0.253 µM,0.478
same,relative viability,LOU-NH91; first compound 0.8 µM,0.433
same,relative viability,LOU-NH91; first compound 2.53 µM,0.501
same,relative viability,LOU-NH91; first compound 8 µM,0.522
same,relative viability,LXF-289; first compound 0.253 µM,0.958
same,relative viability,LXF-289; first compound 0.8 µM,0.98
same,relative viability,LXF-289; first compound 2.53 µM,1.07
same,relative viability,LXF-289; first compound 8 µM,1.08
same,relative viability,NCI-H1792; first compound 0.253 µM,1
same,relative viability,NCI-H1792; first compound 0.8 µM,0.773
same,relative viability,NCI-H1792; first compound 2.53 µM,0.96
same,relative viability,NCI-H1792; first compound 8 µM,0.964
same,relative viability,NCI-H1915; first compound 0.253 µM,0.985
same,relative viability,NCI-H1915; first compound 0.8 µM,0.69
same,relative viability,NCI-H1915; first compound 2.53 µM,1.06
same,relative viability,NCI-H1915; first compound 8 µM,0.952
same,relative viability,NCI-H1975; first compound 0.253 µM,0.447
same,relative viability,NCI-H1975; first compound 0.8 µM,0.341
same,relative viability,NCI-H1975; first compound 2.53 µM,0.412
same,relative viability,NCI-H1975; first compound 8 µM,0.379
same,relative viability,NCI-H1993; first compound 0.253 µM,1.07
same,relative viability,NCI-H1993; first compound 0.8 µM,0.951
same,relative viability,NCI-H1993; first compound 2.53 µM,1.12
same,relative viability,NCI-H1993; first compound 8 µM,0.675
same,relative viability,NCI-H2023; first compound 0.253 µM,0.954
same,relative viability,NCI-H2023; first compound 0.8 µM,1.08
same,relative viability,NCI-H2023; first compound 2.53 µM,1.08
same,relative viability,NCI-H2023; first compound 8 µM,0.744
same,relative viability,NCI-H2087; first compound 0.253 µM,0.772
same,relative viability,NCI-H2087; first compound 0.8 µM,0.656
same,relative viability,NCI-H2087; first compound 2.53 µM,0.922
same,relative viability,NCI-H2087; first compound 8 µM,0.835
same,relative viability,NCI-H520; first compound 0.253 µM,0.529
same,relative viability,NCI-H520; first compound 0.8 µM,0.933
same,relative viability,NCI-H520; first compound 2.53 µM,0.984
same,relative viability,NCI-H520; first compound 8 µM,0.365
same,relative viability,SW 1573; first compound 0.253 µM,1.14
same,relative viability,SW 1573; first compound 0.8 µM,1.05
same,relative viability,SW 1573; first compound 2.53 µM,1.23
same,relative viability,SW 1573; first compound 8 µM,1.03
